Data taken from patent US20110230481A2, “DERIVATIVES OF TETRABROMOBENZIMIDAZOLE, A PROCESS FOR THE PREPARATION THEREOF, A PHARMACEUTICAL COMPOSITION COMPRISING THE SAME, A METHOD OF USING THE SAME, A METHOD FOR MODULATING OR REGULATING SERINE/THREONINE KINASES, AND SERINE/THREONINE KINASES MODULATING AGENT” (SELVITA S.A., priority 2009, published 2011).

Target: PIM1 (Homo sapiens, UniProt P11309)
Experiment: KINOMEscan Max
Type: binding
Design: DNA tag (qPCR read-out); purchased Ambit Kinomescan
Protocol: Kinase panel profiling was performed at Ambit Kinomescan (http://www.ambitbio.com/technology/) using the “KINOMEscan™ Max” assay platform, a high-throughput method for screening small molecule compounds against large numbers of human kinases. KINOMEscan™ is based on a competition binding assay that quantitatively measures the ability of a compound to compete with an immobilized, active-site directed ligand. The assay is performed by combining three components: DNA-tagged kinase; immobilized ligand; and a test compound. The ability of the test compound to compete with the immobilized ligand is measured via quantitative PCR of the DNA tag. For a description of Ambit's assay protocol, see Fabian et al. A small molecule-kinase interaction map for clinical kinase inhibitors. Nat. Biotechnol. 23, 329-336 (2005).

Sequence of PIM1 (P11309 whole entry): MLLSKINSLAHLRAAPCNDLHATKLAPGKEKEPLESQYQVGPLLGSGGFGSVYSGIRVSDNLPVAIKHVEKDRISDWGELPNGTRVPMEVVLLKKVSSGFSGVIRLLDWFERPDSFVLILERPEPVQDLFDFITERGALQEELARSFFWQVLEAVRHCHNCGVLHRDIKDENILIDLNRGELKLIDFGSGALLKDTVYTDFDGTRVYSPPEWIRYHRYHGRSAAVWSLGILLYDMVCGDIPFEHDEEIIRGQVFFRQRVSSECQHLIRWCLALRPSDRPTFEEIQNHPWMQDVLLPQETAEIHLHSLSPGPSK

## NCCCNc1nc2c(Br)c(Br)c(Br)c(Br)c2[nH]1 [Compound 11, N-(3-aminopropyl)-4,5,6,7-tetrabromo-1H-benzo[d]imidazol-2-amine]
  remaining binding at 1 µM: 4%
